One assay deals with H460 cells. The assay is described as follows: Wound healing assay (migration). The conditions noted are these: H460, 1 and 2.5 μM, at 48 h and 72 h, vs untreated cells. It counts as cell-based, human. On the procedure: Wound healing assay was conducted to assess the effects of DH_31 on migration. H292 and H460 cells (4.0–4.2 × 10^4 cells per well) were seeded in 96-well plates. Following overnight incubation, wounds were created by scraping the monolayer cells with a 10 μL pipette tip, and non-adherent cells were washed off with PBS. The cells were treated with different concentrations of DH_31 (0–2.5 μM) in the growth medium containing 1% FBS for 72 h at 37 °C. […] The scratched area was analyzed by using ImageJ™ software (Image J 1.52a, Rasband, W., National Institutes of Health, Bethesda, MD, USA). Cell migration was determined by the rate of cells moving towards the scratched area.

The next assay deals with detached H460 cells. Kind of assay: Anoikis assay (viability under detachment, MTT). Type of assay: cell-based, human. As to conditions: H460, 1 and 2.5 μM, at 12 h (p < 0.01) and 24 h (p < 0.001). How it is done:
Anoikis, a detachment-induced apoptosis, is a mechanism to prevent metastasis, so resistance to anoikis enhances the potential of metastasis. To confirm that DH_31 induces anoikis, the detached H460 cells were treated with 1 and 2.5 μM of DH_31 for 6, 12, and 24 h.
MTT assay was conducted to ascertain cell viability after treatment with DH-31 under detachment conditions. H292 and H460 cells (5.0 × 10^3 cells per well) were seeded in ultra-low attachment 96-well plates and treated with different concentrations of DH_31 (0–2.5 μM) at 37 °C. At 0, 6, 12, and 24 h of incubation, the cell suspensions were transferred onto regular cell culture plates in growth medium to facilitate attachment. After 3 h, images of cells that survived anoikis and recovered their adherent growth ability were captured with a 10 × objective using an inverted microscope (Olympus IX51 with DP70; OlympusbAmerica Inc., Center valley, PA, USA). Then, the medium in each well was removed and replaced with 100 µL of MTT solution. Cell viability was assessed using MTT assay, following the manufacturers’ protocols. Anoikis resistance was calculated as a percentage compared with the control.

A further assay has as its target T1, STAT3 (Homo sapiens, UniProt P40763).
T1 construct: endogenous in cells; host or cells: NCI-H460 (ATCC HTB-177)
The assay is described as follows: STAT3 Western blot. Type of assay: cell-based. The conditions noted are these: H460, 1 μM and 2.5 μM, 24 h (p < 0.05). On the procedure: These findings imply that DH_31 exerts its anticancer effects by modulating the expression and/or accumulation of STAT3.
Western blot analysis was performed to detect and quantify specific proteins in a sample. H460 cells (4.0 × 10^5 cells per well) were seeded in 6 well plates. Following overnight incubation, the cells were treated with different concentrations of DH_31 (0–2.5 μM) for 24 h at 37 °C. After treatment, the cell lysates were isolated using a 1 × RIPA buffer containing a protease inhibitor cocktail for 45 min at 4 °C. The protein content was determined using the BCA protein assay kit. For the Western blot assay, an equal amount of the denatured proteins from cell lysates was separated by electrophoresis on 10 or 12% SDS-PAGE and transferred to 0.2 µm polyvinylidene difluoride (PVDF) membranes (Bio-Rad Laboratories, Hercules, CA, USA). After the membranes were blocked with 5% skim milk, they were then incubated overnight with specific primary antibodies at 4 °C. Subsequently, the membranes were incubated with HRP-conjugated secondary antibodies for 1 h at room temperature. Protein bands were visualized using SuperSignal^TM West Pico PLUS Chemiluminescent Substrate. The protein intensity was analyzed using ImageJ™ software (Image J 1.52a, Rasband, W., National Institutes of Health, Bethesda, MD, USA).
(In western blotting, separated proteins are transferred to a membrane and probed.)

T1 sequence (P40763 whole entry): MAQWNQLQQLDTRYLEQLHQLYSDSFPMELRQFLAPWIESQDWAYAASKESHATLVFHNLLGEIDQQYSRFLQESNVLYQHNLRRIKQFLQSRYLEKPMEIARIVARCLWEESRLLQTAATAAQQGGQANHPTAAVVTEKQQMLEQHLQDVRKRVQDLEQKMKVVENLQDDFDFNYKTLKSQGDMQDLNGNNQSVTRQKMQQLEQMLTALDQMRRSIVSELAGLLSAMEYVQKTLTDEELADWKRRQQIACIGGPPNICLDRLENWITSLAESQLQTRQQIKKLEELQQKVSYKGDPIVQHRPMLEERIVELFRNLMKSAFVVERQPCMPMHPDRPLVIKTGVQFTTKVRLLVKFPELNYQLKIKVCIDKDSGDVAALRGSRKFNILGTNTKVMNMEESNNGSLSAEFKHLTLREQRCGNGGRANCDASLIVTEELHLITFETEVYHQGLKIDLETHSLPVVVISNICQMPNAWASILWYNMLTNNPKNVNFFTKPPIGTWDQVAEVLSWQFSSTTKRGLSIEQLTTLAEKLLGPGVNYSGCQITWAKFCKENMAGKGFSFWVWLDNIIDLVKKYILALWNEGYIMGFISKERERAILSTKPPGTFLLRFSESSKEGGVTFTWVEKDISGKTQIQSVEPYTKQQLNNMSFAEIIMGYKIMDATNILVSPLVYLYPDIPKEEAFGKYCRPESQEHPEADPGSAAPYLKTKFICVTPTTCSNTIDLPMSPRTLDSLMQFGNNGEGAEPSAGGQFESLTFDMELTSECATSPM

Turning to `COc1c(C)cc2c(c1O)[C@@H]1CN(Cc3ccc4ccccc4c3)[C@@H](C#N)[C@H](C2)N1C` [DH_31, (1R,4R,5S)-10-hydroxy-9-methoxy-8,11-dimethyl-3-(naphthalen-2-ylmethyl)-1,2,3,4,5,6-hexahydro-1,5-epiminobenzo[d]azocine-4-carbonitrile], in the assay with H460 cells, the “cell migration across the wound space” value is “significantly decreased”. Moreover, the “cell viability of detached cells (anoikis)” value with detached H460 cells is given as “significant decrease”. Besides, the “STAT3 protein level (Western blot)” value on STAT3 is given as “significant decrease”.

Values taken from PMC11355573, “A New Renieramycin T Right-Half Analog as a Small Molecule Degrader of STAT3” (Marine Drugs, 2024).
